Laboratory results: US11324720B2, “Antiproliferative DNA polymerase inhibitor” (NEW YORK MEDICAL COLLEGE, priority 2018, dated 2022)

Tests used:
Assay in all cases: Cell proliferation assay, MTT method
Assay type in all cases: cell-based, human
[1] = tested on: BxPC-3 cells
Description: (§1) DNA replication precedes cell division. Thus, cancer cells cannot divide and proliferate without successful chromosomal duplication. A DNA polymerase inhibitor should inhibit cancer cell proliferation. We characterized the antiproliferative properties of zelpolib on a number of cell lines originated from pancreatic cancer (BxPC-3) and breast cancer (MCF7 for ER+ breast cancer). In addition, we developed a cisplatin resistant subline of a pancreatic cancer cell line, R-BxPC3 for our studies as well. We used the MTT method^25 for analyzing cell proliferation. This assay is based on the reduction of 3-(4,5-dimethylthiazol-2-yl)-2,5-diphenyltetrazolium bromide by live cells to an insoluble formazon, which were subsequently dissolved in DMSO and quantified by UV absorbance. Therefore, the cell number is proportional to the optical density in the established linear region. […] The plateau phenomena indicate inhibition of proliferation without cell killing, similar to these observed from hydroxyurea^26, aphidicolin^27, and to a certain extent, methotrexate treatments^28. Direct inhibition of DNA polymerase activity provides a unique mechanism that is not employed by any of the current cancer therapeutics. We selected a number of most widely prescribed chemotherapeutics with distinct mechanisms to compare their antiproliferative potential in the 2 cancer cell lines. We included alkylating agent cisplatin, antimetabolites methotrexate and 5-flourouracil (5FU)^29-31. […] Whereas the comparison with cisplatin is biphasic.
(§2) Human cancer cells (5×10^3-7.5×10^3) were initially seeded in 96-well plates (Cellstar) containing 0.2 ml media per well. After 24 hrs, these cells were treated with variable concentrations drug combinations for 48-72 hrs. Subsequently, 4,5-dimethylthiazol-2-yl-2,5-diphenyltetrazolium bromide (MTT) (20 μl of 5 mg/ml) was added to each well for 3 hrs. Formazan crystals were then dissolved in 150 μl DMSO and optical density was read at 490 nm^25. All experiments were performed in triplicates. Results were analyzed by GraphPad Prism. Data represent mean value±SEM for each concentration of inhibitor combinations.

[2] = tested on: MCF7 cells
Description: as §1, §2

[3] = tested on: R-BxPC-3 cells; conditions: R-BxPC-3 (cisplatin resistant)
Description: DNA replication precedes cell division. Thus, cancer cells cannot divide and proliferate without successful chromosomal duplication. A DNA polymerase inhibitor should inhibit cancer cell proliferation. We characterized the antiproliferative properties of zelpolib on a number of cell lines originated from pancreatic cancer (BxPC-3) and breast cancer (MCF7 for ER+ breast cancer). In addition, we developed a cisplatin resistant subline of a pancreatic cancer cell line, R-BxPC3 for our studies as well. We used the MTT method^25 for analyzing cell proliferation. This assay is based on the reduction of 3-(4,5-dimethylthiazol-2-yl)-2,5-diphenyltetrazolium bromide by live cells to an insoluble formazon, which were subsequently dissolved in DMSO and quantified by UV absorbance. Therefore, the cell number is proportional to the optical density in the established linear region. […] The plateau phenomena indicate inhibition of proliferation without cell killing, similar to these observed from hydroxyurea^26, aphidicolin^27, and to a certain extent, methotrexate treatments^28. […]
Human cancer cells (5×10^3-7.5×10^3) were initially seeded in 96-well plates (Cellstar) containing 0.2 ml media per well. […] Formazan crystals were then dissolved in 150 μl DMSO and optical density was read at 490 nm^25. […] Results were analyzed by GraphPad Prism. […]

COC(=O)c1cc(-c2ccccc2)sc1NC(=S)NNC(=O)CCc1ccc(O)c(O)c1 [zelpolib]
antiproliferative activity compared with cisplatin ([1]; BxPC-3, MTT): superior to cisplatin up to 10 μM
antiproliferative activity compared with methotrexate and 5-FU ([1]; BxPC-3, MTT): superior to methotrexate and 5-FU at all concentrations
concentration at which antiproliferative effect reaches a plateau ([1]; BxPC-3, MTT): about 5 μM
cytotoxicity ([1]; zelpolib alone, cell lines not specified): minimal cell cytotoxicity
concentration at which antiproliferative effect reaches a plateau [2]: about 5 μM
antiproliferative activity compared with methotrexate and 5-FU ([2]; 72 h): superior to methotrexate and 5-FU across the concentration range
antiproliferative activity, zelpolib versus cisplatin ([2]; 72 h): at least as effective as cisplatin in inhibiting MCF7 cell growth up to 5 μM
concentration at which antiproliferative effect reaches a plateau [3]: about 5 μM
